For orientation: melting point means the temperature, or range, at which the solid turns liquid. The IC50 is the point on the concentration scale where inhibition reaches its midpoint. Higher therefore signals weaker potency in that assay. As usually defined, the % inhibition is the drop in the measured response relative to a control, in per cent. A low value points to a response near the control. As usually defined, the inhibition is the change of the read-out against control, counted positive when it falls.

Converted amounts (≈) assume the structure as drawn.

Sequence of Jack Bean Urease (P07374 whole entry, looked up): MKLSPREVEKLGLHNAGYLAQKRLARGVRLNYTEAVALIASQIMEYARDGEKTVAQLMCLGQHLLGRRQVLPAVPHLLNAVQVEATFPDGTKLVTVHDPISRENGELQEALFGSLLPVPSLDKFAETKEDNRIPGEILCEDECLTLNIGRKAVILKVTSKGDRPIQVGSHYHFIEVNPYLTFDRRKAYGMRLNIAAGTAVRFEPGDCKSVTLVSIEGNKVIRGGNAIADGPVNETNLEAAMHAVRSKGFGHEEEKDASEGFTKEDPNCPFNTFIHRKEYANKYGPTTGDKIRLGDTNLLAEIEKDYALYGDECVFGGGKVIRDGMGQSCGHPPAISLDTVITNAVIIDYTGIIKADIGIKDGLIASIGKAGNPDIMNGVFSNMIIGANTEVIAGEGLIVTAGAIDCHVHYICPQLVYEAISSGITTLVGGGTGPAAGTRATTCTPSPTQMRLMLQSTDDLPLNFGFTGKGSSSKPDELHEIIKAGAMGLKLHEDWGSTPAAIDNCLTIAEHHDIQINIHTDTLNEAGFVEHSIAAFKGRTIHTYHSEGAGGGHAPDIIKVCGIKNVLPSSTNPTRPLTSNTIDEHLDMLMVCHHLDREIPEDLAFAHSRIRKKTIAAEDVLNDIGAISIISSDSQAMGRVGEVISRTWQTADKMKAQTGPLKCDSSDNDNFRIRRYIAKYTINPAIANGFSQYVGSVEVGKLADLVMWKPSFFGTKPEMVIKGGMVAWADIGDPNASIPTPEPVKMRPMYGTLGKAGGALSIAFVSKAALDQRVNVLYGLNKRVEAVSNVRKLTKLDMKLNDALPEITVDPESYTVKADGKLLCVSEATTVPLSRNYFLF

System in one data set: not given
Test: not given
Conditions: not given
Consider `CCCCCCCCCCCCCCCc1nnc(S)n1N=Cc1cccc(Cl)c1` [Compound T10], for which the melting point lay in the range of 205 to 208 °C.

Turning to `CCCCCCCCCCCCCCCc1nnc(S)n1N=Cc1ccc(Cl)cc1` [Compound T11], the melting point fell in the range of 202 to 205 °C.

For the compound `CCCCCCCCCCCCCCCc1nnc(S)n1N=Cc1ccc(Cl)cc1Cl` [Compound T12], the melting point lay within 211 to 214 °C.

In turn, `CCCCCCCCCCCCCCCc1nnc(S)n1N=Cc1cccc(Br)c1` [Compound T13] registered a melting point of 197 to 200 °C.

For a further data set, the system named is Candida albicans. The data set is described as follows: In vitro antifungal screening, tube dilution method. Type of data set: cell-based. The settings on record: Candida albicans; C. albican; Sabouraud dextrose broth, 37 ± 1 °C, 48 h; read-out: Minimum inhibitory concentration. Here is the method: (§1) The in vitro antimicrobial screening of the synthesized 1,2,4-triazole derivatives (T1–T20) in μM was determined against Gram-positive Bacillus subtilis, […], Gram-negative Escherichia coli bacterium and fungal strains Candida albicans and Aspergillus niger by tube dilution method using ciprofloxacin, amoxycillin (antibacterial) and fluconazole (antifungal) as reference drugs. DMSO was used to dissolve the reference and sample derivatives (T1–T20). Dilutions were prepared in nutrient broth (I.P.) for bacterial (incubated at 37 ± 1 °C for 24 h) and Sabouraud dextrose broth (I.P.) for fungal species (37 ± 1 °C for 48 h for C. albicans) and (25 ± 1 °C for 7 days for A. niger) (Table 3, Figs. 4 and 5).
Regarding `CCCCCCCCCCCCCCCc1nnc(S)n1N=Cc1cccc(Cl)c1` [Compound T10], the MIC came out at 223 µM (≈ 100 µg/mL).

In the case of `CCCCCCCCCCCCCCCc1nnc(S)n1N=Cc1ccc(Cl)cc1` [Compound T11], the MIC stood at 27.8 µM (≈ 12.5 µg/mL).

For the compound `CCCCCCCCCCCCCCCc1nnc(S)n1N=Cc1ccc(Cl)cc1Cl` [Compound T12], the MIC was 207 µM (≈ 100 µg/mL).

On to `CCCCCCCCCCCCCCCc1nnc(S)n1N=Cc1cccc(Br)c1` [Compound T13], for which the MIC amounted to 101 µM (≈ 50 µg/mL).

A further data set concerns Aspergillus niger. Described as above. Particulars: Aspergillus niger, 168 h; A. niger; Sabouraud dextrose broth, 25 ± 1 °C, 7 days; read-out: Minimum inhibitory concentration. In kind it is cell-based. Here is the method:
as §1
For `CCCCCCCCCCCCCCCc1nnc(S)n1N=Cc1cccc(Cl)c1` [Compound T10], the MIC amounted to 55.6 µM (≈ 25 µg/mL).

`CCCCCCCCCCCCCCCc1nnc(S)n1N=Cc1ccc(Cl)cc1` [Compound T11]: the MIC was found to be 111 µM (≈ 50 µg/mL).

`CCCCCCCCCCCCCCCc1nnc(S)n1N=Cc1ccc(Cl)cc1Cl` [Compound T12]: the MIC worked out at 103 µM (≈ 50 µg/mL).

Take `CCCCCCCCCCCCCCCc1nnc(S)n1N=Cc1cccc(Br)c1` [Compound T13]: the MIC was 203 µM (≈ 100 µg/mL).

System in the next data set: not listed separately
The data set is described as follows: DPPH free radical scavenging activity. Particulars: DPPH antioxidant. Here is the method: In the DPPH free radical scavenging activity, compounds (T1–T20) were evaluated for their free radical scavenging activity with ascorbic acid as standard compound. The scavenging effect increased with the increasing concentrations of sample compounds. DPPH is relatively stable nitrogen centered free radical that easily accepts an electron or hydrogen radical to become a stable diamagnetic molecule. DPPH radicals react with suitable reducing agents as a result of which the electrons become paired off forming the corresponding hydrazine. The solution therefore loses colour stoichometrically depending on the number of electrons taken up. […] The sample solutions were incubated for 30 min at room temperature in dark place and after then absorbance was recorded against the blank solution at 517 nm. The relative percent of DPPH scavenging activity was calculated according to the following equation: I%=Acontrol-Asample/Acontrol×100,
where Acontrol is the absorbance of the control, Asample is the absorbance of the test compound.
In general terms: DPPH is a stable violet radical that fades when it is reduced.
`CCCCCCCCCCCCCCCc1nnc(S)n1N=Cc1cccc(Cl)c1` [Compound T10]: the IC50 was determined as 43.57 µg/mL (≈ 97 µM).

Compound `CCCCCCCCCCCCCCCc1nnc(S)n1N=Cc1ccc(Cl)cc1` [Compound T11] came in with a half-maximal inhibitory concentration (IC50) of 45.36 µg/mL (≈ 101 µM).

Regarding `CCCCCCCCCCCCCCCc1nnc(S)n1N=Cc1ccc(Cl)cc1Cl` [Compound T12], the IC50 came to 39.56 µg/mL (≈ 81.8 µM).

Regarding `CCCCCCCCCCCCCCCc1nnc(S)n1N=Cc1cccc(Br)c1` [Compound T13], the IC50 was 36.40 µg/mL (≈ 73.8 µM).

Still in this data set, the particulars now being: DPPH, 25 µg/ml.
For the compound `CCCCCCCCCCCCCCCc1nnc(S)n1N=Cc1cccc(Cl)c1` [Compound T10], the “% inhibition” value came out at 45.56%.

Regarding `CCCCCCCCCCCCCCCc1nnc(S)n1N=Cc1ccc(Cl)cc1` [Compound T11], the “% inhibition” value worked out at 35.78%.

For the compound `CCCCCCCCCCCCCCCc1nnc(S)n1N=Cc1ccc(Cl)cc1Cl` [Compound T12], the “% inhibition” value was found to be 44.45%.

For `CCCCCCCCCCCCCCCc1nnc(S)n1N=Cc1cccc(Br)c1` [Compound T13], the “% inhibition” value is on record as 43.46%.

Still in this data set, the particulars now being: DPPH, 50 µg/ml.
Regarding `CCCCCCCCCCCCCCCc1nnc(S)n1N=Cc1cccc(Cl)c1` [Compound T10], the “% inhibition” value is 51.56%.

With `CCCCCCCCCCCCCCCc1nnc(S)n1N=Cc1ccc(Cl)cc1` [Compound T11], the “% inhibition” value was determined as 52.89%.

In the case of `CCCCCCCCCCCCCCCc1nnc(S)n1N=Cc1ccc(Cl)cc1Cl` [Compound T12], the “% inhibition” value turned out to be 51.45%.

In the case of `CCCCCCCCCCCCCCCc1nnc(S)n1N=Cc1cccc(Br)c1` [Compound T13], the “% inhibition” value was 57.67%.

The data set is the same for the next values; noted with them: DPPH, 75 µg/ml.
As to `CCCCCCCCCCCCCCCc1nnc(S)n1N=Cc1cccc(Cl)c1` [Compound T10], the “% inhibition” value was found to be 57.57%.

On to `CCCCCCCCCCCCCCCc1nnc(S)n1N=Cc1ccc(Cl)cc1` [Compound T11], for which the “% inhibition” value amounted to 70.89%.

As to `CCCCCCCCCCCCCCCc1nnc(S)n1N=Cc1ccc(Cl)cc1Cl` [Compound T12], the “% inhibition” value turned out to be 68.56%.

For `CCCCCCCCCCCCCCCc1nnc(S)n1N=Cc1cccc(Br)c1` [Compound T13], the “% inhibition” value is listed as 73.76%.

Staying with this data set, now noted: DPPH, 100 µg/ml.
`CCCCCCCCCCCCCCCc1nnc(S)n1N=Cc1cccc(Cl)c1` [Compound T10]: the “% inhibition” value was 62.67%.

For `CCCCCCCCCCCCCCCc1nnc(S)n1N=Cc1ccc(Cl)cc1` [Compound T11], the “% inhibition” value was 89.9%.

As for `CCCCCCCCCCCCCCCc1nnc(S)n1N=Cc1ccc(Cl)cc1Cl` [Compound T12], the “% inhibition” value is listed as 70.61%.

As to `CCCCCCCCCCCCCCCc1nnc(S)n1N=Cc1cccc(Br)c1` [Compound T13], the “% inhibition” value was 89.56%.

The subject of the next data set is HCT116 (human colon cancer cells). The data set is described as follows: Anticancer evaluation, SRB assay. Type of data set: cell-based. The settings on record: Homo sapiens, HCT-116; HCT116, 72 h, SRB; mean of at least triplicates. Here is the method:
HCT116 (human colon cancer cells) were seeded at 2500 cells/well (96 well plate), allowed to attach overnight, exposed to the respective compounds for 72 h and subjected to SRB assay (570 nm). Data represent mean IC50 of at least triplicates. The compounds were all dissolved in DMSO as stock of 100 mg/ml. […] The highest concentration of each compound tested (100 μg/ml) contained only 0.1% DMSO.
As to `CCCCCCCCCCCCCCCc1nnc(S)n1N=Cc1cccc(Cl)c1` [Compound T10], 174 µM corresponded to half-maximal inhibition (IC50).

`CCCCCCCCCCCCCCCc1nnc(S)n1N=Cc1ccc(Cl)cc1` [Compound T11] yielded an IC50 of more than 223 µM.

Compound `CCCCCCCCCCCCCCCc1nnc(S)n1N=Cc1ccc(Cl)cc1Cl` [Compound T12] registered an IC50 of more than 207 µM.

With `CCCCCCCCCCCCCCCc1nnc(S)n1N=Cc1cccc(Br)c1` [Compound T13], the IC50 was more than 203 µM.

The test system of the next data set is Escherichia coli. Description: In vitro antimicrobial screening, tube dilution method. The settings on record: Escherichia coli; E. coli, Gram −ve; nutrient broth, 37 ± 1 °C, 24 h; read-out: Minimum inhibitory concentration. Type of data set: cell-based. Here is the method: as §1
As for `CCCCCCCCCCCCCCCc1nnc(S)n1N=Cc1cccc(Cl)c1` [Compound T10], the MIC stood at 111 µM (≈ 50 µg/mL).

Regarding `CCCCCCCCCCCCCCCc1nnc(S)n1N=Cc1ccc(Cl)cc1` [Compound T11], the MIC is 111 µM (≈ 50 µg/mL).

Turning to `CCCCCCCCCCCCCCCc1nnc(S)n1N=Cc1ccc(Cl)cc1Cl` [Compound T12], the MIC is 103 µM (≈ 50 µg/mL).

Consider `CCCCCCCCCCCCCCCc1nnc(S)n1N=Cc1cccc(Br)c1` [Compound T13], for which the MIC was 203 µM (≈ 100 µg/mL).

The next data set relates to Pseudomonas aeruginosa. The data set is described as above. In kind it is cell-based. The settings on record: Pseudomonas aeruginosa; P. aeruginosa, Gram −ve; nutrient broth, 37 ± 1 °C, 24 h; read-out: Minimum inhibitory concentration. The procedure:
as §1
Take `CCCCCCCCCCCCCCCc1nnc(S)n1N=Cc1cccc(Cl)c1` [Compound T10]: the MIC stood at 55.6 µM (≈ 25 µg/mL).

Regarding `CCCCCCCCCCCCCCCc1nnc(S)n1N=Cc1ccc(Cl)cc1` [Compound T11], the MIC is 111 µM (≈ 50 µg/mL).

Consider `CCCCCCCCCCCCCCCc1nnc(S)n1N=Cc1ccc(Cl)cc1Cl` [Compound T12], for which the MIC is 51.7 µM (≈ 25 µg/mL).

As for `CCCCCCCCCCCCCCCc1nnc(S)n1N=Cc1cccc(Br)c1` [Compound T13], the MIC came to 203 µM (≈ 100 µg/mL).

The subject of a further data set is Bacillus subtilis. Described as above. The settings on record: Bacillus subtilis; B. substilis, Gram +ve; nutrient broth, 37 ± 1 °C, 24 h; read-out: Minimum inhibitory concentration. Type of data set: cell-based. The procedure: as §1
In the case of `CCCCCCCCCCCCCCCc1nnc(S)n1N=Cc1cccc(Cl)c1` [Compound T10], the MIC is 55.6 µM (≈ 25 µg/mL).

`CCCCCCCCCCCCCCCc1nnc(S)n1N=Cc1ccc(Cl)cc1` [Compound T11]: the MIC is 55.6 µM (≈ 25 µg/mL).

Consider `CCCCCCCCCCCCCCCc1nnc(S)n1N=Cc1ccc(Cl)cc1Cl` [Compound T12], for which the MIC came to 103 µM (≈ 50 µg/mL).

In the case of `CCCCCCCCCCCCCCCc1nnc(S)n1N=Cc1cccc(Br)c1` [Compound T13], the MIC was determined as 101 µM (≈ 50 µg/mL).

The next data set has as its target Jack Bean Urease (Canavalia ensiformis, UniProt P07374). Description: biochemical.
Conditions: not given
The procedure:
Urease inhibitory potential for each synthesisized compound (T1–T20) was evaluated using Jack Bean Urease by Indophenol method (Table 5, Figs. 9, 10, 11). 250 µl of jack bean urease (4U) was mixed with 250 µl of different synthesized test compounds and standard of different concentrations [dissolved in DMSO/H2O mixture (1:1 v/v)]. The mixture was pre-incubated for 1 h at 37 °C in test tubes. 2 ml of 100 mM phosphate buffer (pH 6.8) containing 500 mM urea and 0.002% phenol red as an indicator were added in sample test tubes after pre incubation and again incubated at room temperature. Absorbance of reaction mixture was recorded by ELISA at 570 nm. Ammonium carbonate increased the pH of phosphate buffer from 6.8 to 7.7 which was produced from urea by urease enzyme and the end peak was measured by the colour of phenol red indicator [16].
The percentage inhibition of urease enzyme was calculated by using following formula: I%=Acontrol-Asample/Acontrol×100,
where Acontrol is the absorbance of the control; Asample is the absorbance of the test compound.
Compound `CCCCCCCCCCCCCCCc1nnc(S)n1N=Cc1cccc(Cl)c1` [Compound T10] gave an IC50 of 116 µM, an inhibition at 25 µg/mL of 27.9%, an inhibition at 50 µg/mL of 46.9% and an inhibition at 75 µg/mL of 70.9%. Testing at 100 µg/mL gave an inhibition of 89.8%.

In turn, `CCCCCCCCCCCCCCCc1nnc(S)n1N=Cc1ccc(Cl)cc1` [Compound T11] had an IC50 of 122 µM, an inhibition at 25 µg/mL of 25%, an inhibition at 50 µg/mL of 42.5% and an inhibition at 75 µg/mL of 68.9%. Besides, the inhibition at 100 µg/mL came out at 92.7%.

In the case of `CCCCCCCCCCCCCCCc1nnc(S)n1N=Cc1ccc(Cl)cc1Cl` [Compound T12], the IC50 was 120 µM, the inhibition at 25 µg/mL came out at 43.6%, the inhibition at 50 µg/mL was determined as 46.6% and 75 µg/mL produced 52.6% inhibition. At 100 µg/mL the inhibition was 61.6%.

`CCCCCCCCCCCCCCCc1nnc(S)n1N=Cc1cccc(Br)c1` [Compound T13]: the IC50 was 101 µM, the inhibition at 25 µg/mL came out at 26.6%, testing at 50 µg/mL gave an inhibition of 48.8% and testing at 75 µg/mL gave an inhibition of 74%. This compound displayed an inhibition at 100 µg/mL of 98.9%.

These data come from publication PMC7818921, “Synthesis and biological evaluation of heterocyclic 1,2,4-triazole scaffolds as promising pharmacological agents” (BMC Chemistry, 2021).
